Two molecules from patent US7501410B2, “Methods of inhibiting BTK and SYK protein kinases” (Roche Palo Alto LLC, priority 2006, dated 2009) can be followed below.

Experiment [1] deals with T1, Bruton's Tyrosine Kinase (Btk) (Homo sapiens, UniProt Q06187).
T1 construct: 5-10 nM Btk enzyme (His-tagged, full-length); His tag
As to the kind of experiment: Determination of IC50 of Bruton's Tyrosine Kinase (Btk) inhibition, 33P filtration assay. In kind it is biochemical. Particulars: His-tagged full-length Btk, 100 μM ATP. An excerpt:
Determination of IC50 of Bruton's Tyrosine Kinase (Btk) Inhibition
The assay is a capture of radioactive ^33P phosphorylated product through filtration. The interactions of Btk, biotinylated SH2 peptide substrate (Src homology), and ATP lead to phosphorylation of the peptide substrate. Biotinylated product is bound streptavidin sepharose beads. All bound, radiolabeled products are detected by scintillation counter.
Plates assayed are 96-well polypropylene (Greiner) and 96-well 1.2 μm hydrophilic PVDF filter plates (Millipore). Concentrations reported here are final assay concentrations: 10-100 μM compounds in DMSO (Burdick and Jackson), 5-10 nM Btk enzyme (His-tagged, full-length), 30 μM peptide substrate (Biotin-Aca-[…]-NH2), 100 μM ATP (Sigma), 8 mM imidazole (Sigma, pH 7.2), 8 mM glycerol-2-phosphate (Sigma), 200 μM EGTA (Roche Diagnostics), 1 mM MnCl2 (Sigma), 20 mM MgCl2 (Sigma), 0.1 mg/ml BSA (Sigma), 2 mM DTT (Sigma), 1 μCi ^33P ATP (Amersham), 20% streptavidin sepharose beads (Amersham), 50 mM EDTA (Gibco), 2 M NaCl (Gibco), 2 M NaCl w/1% phosphoric acid (Gibco), microscint-20 (Perkin Elmer).
IC50 determinations are calculated from 10 data points per compound utilizing data produced from a standard 96-well plate assay template. One control compound and seven unknown inhibitors were tested on each plate and each plate was run twice. Typically, compounds were diluted in half-log starting at 100 μM and ending at 3 nM. The control compound was staurosporine. Background was counted in the absence of peptide substrate. Total activity was determined in the presence of peptide substrate. The following protocol was used to determine BTK inhibition.
1) Sample preparation: The test compounds were diluted at half-log increments in assay buffer (imidazole, glycerol-2-phosphate, EGTA, MnCl2, MgCl2, BSA).
2) Bead preparation • a.) rinse beads by centrifuging at 500 g • b.) reconstitute the beads with PBS and EDTA to produce a 20% bead slurry
3) Pre-incubate reaction mix without substrate (assay buffer, DTT, ATP, ^33P ATP) and mix with substrate (assay buffer, DTT, ATP, ^33P ATP, peptide substrate) 30° C. for 15 min.
4) To start assay, pre-incubate 10 μL BTK in enzyme buffer (imidazole, glycerol-2-phosphate, BSA) and 10 μL of test compounds for 10 min at RT.
5) Add 30 μL reaction mixture without or with substrate to BTK and compounds.
6) Incubate 50 μL total assay mix for 30 min at 30° C.
7) Transfer 40 μL of assay to 150 μL bead slurry in filter plate to stop reaction.
8) Wash filter plate after 30 min, with following steps • a. 3 ×250 μL NaCl • b. 3×250 μL NaCl containing 1% phosphoric acid • c. 1×250 μL H2O
9) Dry plate for 1 h at 65° C. or overnight at RT
10) Add 50 μL microscint-20 and count ^33P cpm on scintillation counter.
Calculate percent activity from raw data in cpm percent activity=(sample−bkg)/(total activity−bkg)×100

For another experiment, the system named is Ramos cells. Briefly: Inhibition of B-cell activation, B cell FLIPR assay in Ramos cells. In kind it is cell-based. Particulars: Homo sapiens, anti-IgM stimulated intracellular calcium increase. An excerpt: Inhibition of B-cell Activation—B Cell FLIPR Assay in Ramos Cells
The B cell FLIPR assay is a cell based functional method of determining the effect of potential inhibitors of the intracellular calcium increase from stimulation by an anti-IgM antibody. Ramos cells (human Burkitt's lymphoma cell line. ATCC-No. CRL-1596) were cultivated in Growth Media (described below). One day prior to assay, Ramos cells were resuspended in fresh growth media (same as above) and set at a concentration of 0.5×10^6/mL in tissue culture flasks. On day of assay, cells were counted and set at a concentration of 1×10^6/mL in growth media supplemented with 1 μM FLUO-3 AM(TefLabs Cat-No. 0116, prepared in anhydrous DMSO and 10% Pluronic acid) in a tissue culture flask, and incubated at 37° C. (4% CO2) for 1 h. To remove extracellular dye, cells were collected by centrifugation (5 min, 1000 rpm), resuspended in FLIPR buffer (described below) at 1×10^6 cells/mL and then dispensed into 96-well poly-D-lysine coated black/clear plates (BD Cat-No. 356692) at 1×10^5 cells per well. Test compounds at seven concentrations ranging from 100 μM to 0.03 μM were added, and allowed to incubate with cells for 30 min at RT. Ramos cell Ca^2+ signaling was stimulated by the addition of 10 μg/mL anti-IgM (Southern Biotech, Cat-No. 2020-01) and measured on a FLIPR (Molecular Devices, captures images of 96 well plates using a CCD camera with an argon laser at 480 nm excitation).
Growth Medium: RPMI 1640 medium with L-glutamine (Invitrogen, Cat-No. 61870-010), 10% Fetal Bovine Serum (FBS, Summit Biotechnology Cat-No. FP-100-05); 1 mM Sodium Pyruvate (Invitrogen Cat. No. 11360-070).
FLIPR buffer: HBSS (Invitrogen, Cat-No. 141175-079),2 mM CaCl2 (Sigma Cat-No. C-4901), HEPES (Invitrogen, Cat-No. 15630-080), 2.5 mM Probenecid (Sigma, Cat-No. P-8761), 0.1% BSA (Sigma, Cat-No. A-7906), 11 mM Glucose (Sigma, Cat-No. G-7528).
In order to achieve the highest final assay concentration of 100 μM, 24 μL of 10 mM compound stock solution (made in DMSO) is added directly to 576 μL of FLIPR buffer. The test compounds are diluted in FLIPR Buffer (using Biomek 2000 robotic pipettor) resulting in the following dilution scheme: vehicle, 1.00×10^−4 M, 1.00×10^−5, 3.16×10^−6, 1.00×10^−6, 3.16×10^−7, 1.00×10^−7, 3.16×10^−8.
Intracellular increases in calcium were reported using a max-min statistic (subtracting the resting baseline from the peak caused by addition of the stimulatory antibody using a Molecular Devices FLIPR control and statistic exporting software. The IC50 was determined using a non-linear curve fit (GraphPad Prism software). Representative results are in Table 1.
For orientation: A change in cytosolic calcium serves as a functional read-out for many receptors and channels.

In experiment [2] the target is T2, Spleen Tyrosine Kinase (SYK) aa 360-635 (Homo sapiens, UniProt P43405).
T2 construct: truncated construct of Spleen Tyrosine Kinase aa 360-635; made in house
Briefly: Determination of IC50 of Spleen Tyrosine Kinase (SYK) inhibition, 33P kinase assay. To be noted: recombinant human SYK360-635, 20 μM ATP; read-out: IC50 (μM) SYK Assay. In kind it is biochemical. On the procedure: Determination of IC50 of Spleen Tyrosine Kinase (SYK) Inhibition
The SYK kinase assay is a standard kinase assay adapted to a 96 well plate format. This assay is performed in 96-well format for IC50 determination with 8 samples which represented 10 half log dilutions and a 40 μL reaction volume. The assay measures the incorporation of radiolabeled ^33P γATP into an N-terminally biotinylated peptide substrate, derived from naturally occurring phosphoacceptor consensus sequence (Biotin-11aa DY*E). Phosphorylated products were detected upon termination of reactions with EDTA and the addition of Streptavidin coated beads. • Assay plates: 96-well MultiScreen 0.65 um filter plates (Millipore Cat. No.: MADVNOB10) • Streptavidin coated beads: Streptavidin Sepharose TM, suspension 5.0 mL, in 50 mM EDTA/PBS diluted (1:100), (Amersham, Cat. No.: 17-5113-01) • Compounds: 10 mM in 100% dimethylsulfoxide (DMSO), final conc.: compound 0.003-100 uM in 10% DMSO • Enzyme: SYK RPA purified, truncated construct of Spleen Tyrosine Kinase aa 360-635, stock solution 1 mg/mL, MW: 31.2 KDa, final conc.:0.0005 μM. • Peptide 1: biotinylated peptide is derived from a naturally occurring phosphor-acceptor consensus sequence (Biotin-[…]), special order from QCB, stock solution 20 mM, final conc.: 5.0 μM. • ATP: Adenosine-5′-triphosphate 20 mM, (ROCHE Cat. No.:93202720), final concentration: 20 μM • Buffer: HEPES: 2-Hydroxyethyl piperazine-2-ethanesulfonic acid (Sigma, Cat. No.: H-3375) final concentration: 50 mM HEPES pH7.5 • BSA: Bovine Serum Albumin Fraction V, fatty acid free (Roche Diagnostics GmbH, Cat. No. 9100221) diluted to a final concentration of 0.1% • EDTA: EDTA stock solution 500 mM, (GIBCO, Cat. No.: 15575-038) final concentration: 0.1 mM • DTT: 1,4-Dithiothreitol (Roche Diagnostics GmbH, Cat. No.: 197777), final conc.: 1 mM • MgCl2×6H2O: MERCK, Cat. No.: 105833.1000, final concentration: 10 mM • Assay Dilution Buffer (ADB): 50 mM HEPES, 0.1 mM EGTA, 0.1 mM Na Vanadate, 0.1 mM β-glycerophosphate, 10 mM MgCl2, 1 mM DTT, 0,1% BSA, pH 7.5 • Bead wash buffer: 10 g/L PBS (Phosphate buffered saline) with 2M NaCl+1% phosphoric acid Experimental Method:
In 40 μL volume, 26 μL of ADB diluted, purified recombinant human SYK360-635 [0.5 nM] was mixed with 4 μL of 10× concentrations of the test compounds, [usually 100 μM-0.003 μM] in [10%] DMSO and the mixture was incubated for 10 min at RT.
The kinase reaction was initiated by the addition of 10 μL 4× substrate cocktail containing the DYE peptide substrate [0 or 5 μM], ATP [20 μM] and […] [2 μCi/rxn]. After incubation at 30° C. for 15 min, the reaction was terminated by the transfer of 25 μL of the reaction sample to a 96 well 0.65 um Millipore MADVNOB membrane/plate containing 200 μL 5 mM EDTA and 20% Streptavidine coated beads in PBS.
The unbound radionucleotides were washed under vacuum with 3×250 μL 2M NaCl; 2×250 μL 2M NaCl+1% phosphoric acid; 1×250 μL H2O. After the last wash membrane/plates were transferred to an adaptor plate, heat dried for 15 min at 60° C., and 50 μL scintillation cocktail was added to each well and 4 h later the amount of radioactivity was counted in a top counter.
The IC50 was calculated using a non-linear curve fit with XLfit software (ID Business Solution Ltd., Guilford, Surrey, UK). […] Representative results are in Table 1.

What is called IC50 is the concentration needed to halve the response being measured.

T1 sequence (Q06187 whole entry): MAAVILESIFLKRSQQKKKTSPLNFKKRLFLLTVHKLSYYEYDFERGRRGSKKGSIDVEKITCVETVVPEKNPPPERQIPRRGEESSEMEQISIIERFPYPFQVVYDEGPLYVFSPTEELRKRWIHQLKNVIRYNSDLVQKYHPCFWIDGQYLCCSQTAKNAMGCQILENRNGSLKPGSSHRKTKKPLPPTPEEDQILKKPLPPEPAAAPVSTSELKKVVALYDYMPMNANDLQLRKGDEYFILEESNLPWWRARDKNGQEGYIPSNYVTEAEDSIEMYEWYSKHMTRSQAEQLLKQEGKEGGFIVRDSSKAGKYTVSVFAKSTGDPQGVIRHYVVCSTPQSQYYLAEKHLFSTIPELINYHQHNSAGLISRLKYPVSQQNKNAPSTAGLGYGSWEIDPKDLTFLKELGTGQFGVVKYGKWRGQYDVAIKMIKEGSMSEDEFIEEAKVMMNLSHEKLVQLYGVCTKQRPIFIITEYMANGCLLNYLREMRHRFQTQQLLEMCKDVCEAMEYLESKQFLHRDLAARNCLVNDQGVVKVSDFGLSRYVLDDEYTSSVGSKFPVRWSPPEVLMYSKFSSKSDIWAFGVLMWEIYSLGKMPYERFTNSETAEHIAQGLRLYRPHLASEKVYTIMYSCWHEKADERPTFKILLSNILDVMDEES

`Cc1cc(Nc2nn(C(C)C)c(=O)c3cc(N(C)C)ccc23)n[nH]1` [Example F-6, 2-Isopropyl-4-(5-methyl-1H-pyrazol-3-ylamino)-7-dimethylamino-2H-phthalazin-1-one]: the IC50 in experiment [1] stood at 0.468 µM; in the experiment with Ramos cells, 1.13 µM.

In the case of `Cc1cc(Nc2nn(C(C)C)c(=O)c3cc(CS(C)(=O)=O)ccc23)n[nH]1` [Example ZI-2, 2-Isopropyl-7-methanesulfonylmethyl-4-(5-methyl-1H-pyrazol-3-yl-amino)-2H-phthalazin-1-one], the IC50 stood at 0.894 µM in experiment [2] and 0.44 µM in experiment [1].
